Assay results: patent publication US20240261318A1, “ANTI-AGING COSMETIC COMPOSITION” (LG HOUSEHOLD & HEALTH CARE LTD., priority 2021, published 2024)

System: FGF10
Experiment: Analysis of mRNA expression of FGF10 in human dermal fibroblasts (qPCR)
Assay type: cell-based
Details: for Expression level (% relative to control): FGF10 mRNA, human dermal fibroblasts, 48 hours; for mRNA expression of FGF 10: human fibroblasts treated with the single substance, result in words
Experimental: Human dermal fibroblasts (neonatal) were purchased from Lonza and then cultured in a carbon dioxide incubator at 37° C. and 5% carbon dioxide. In this case, as a medium for culturing, a medium containing Dulbecco's modified eagle medium (DMEM; Thermo Fisher Scientific) with 10% fetal bovine serum (FBS) and 1% antibiotics (penicillin/streptomycin) was used. Afterward, 20000 cells were seeded in a 6-well plate, and 24 hours later, the DMEM culture medium was treated with each sample having compositions shown in Tables 1 and 2 and cultured again for another 48 hours. As a control, a DMEM culture medium not including any other components was used.

SMILES: C=C1CC[C@@H]2[C@](C)(CO)[C@H](O)CC[C@@]2(C)[C@@H]1C/C=C1/C(=O)OC[C@H]1O [Andrographolide, andrographolide]
- Expression level (% relative to control) (Table 1, sample at 0.2 ppm): 141%
- mRNA expression of FGF 10: promoted

SMILES: Nc1ncnc2c1ncn2[C@@H]1O[C@H](CO)C[C@H]1O [Cordycepin, cordycepin]
- Expression level (% relative to control) (Table 1, sample at 8 ppm): 148%
- Expression level (% relative to control) (Table 2, sample at 0.2 ppm): 102%
- mRNA expression of FGF 10: promoted

SMILES: Nc1ncnc2c1ncn2[C@@H]1O[C@H](CO)[C@@H](O)[C@H]1O [Adenosine, reference compound]
- Expression level (% relative to control) (Table 1, sample at 8 ppm): 88%
- Expression level (% relative to control) (Table 2, sample at 8 ppm): 88%
- mRNA expression of FGF 10: no effect on increasing the expression of FGF 10

SMILES: O=c1c(O)c(-c2ccc(O)c(O)c2)oc2cc(O)cc(O)c12 [Quercetin, quercetin]
- Expression level (% relative to control) (Table 2, sample at 0.2 ppm): 63%
- mRNA expression of FGF 10: promoted
